Measurements: publication PMC9569420 (Communications Biology, 2022)
pIC50: −log10 of the molar value.

Columns and labels:
[1] = biological target: T1, STK21/CIT (Homo sapiens, UniProt O14578); test: HotSpot kinase assay; format: biochemical; conditions: read-out: % Enzyme Activity (relative to DMSO controls)
T1 construct: purchased Reaction Biology Corporation

[2] = biological target: T2, EGFR (Homo sapiens, UniProt P00533); test: biochemical
T2 construct: purchased Reaction Biology Corporation

[3] = biological target: T3, ULK3 (Homo sapiens, UniProt Q6PHR2); test: HotSpot kinase assay; format: biochemical; conditions: read-out: % Enzyme Activity (relative to DMSO controls)
T3 construct: purchased Reaction Biology Corporation

[4] = biological target: T4, BMX/ETK (Homo sapiens, UniProt P51813); test: HotSpot kinase assay; format: biochemical; conditions: read-out: % Enzyme Activity (relative to DMSO controls)
T4 construct: purchased Reaction Biology Corporation

[5] = biological target: T5, CDK3/cyclin E2 (Homo sapiens, UniProt Q00526); test: HotSpot kinase assay; format: biochemical; conditions: read-out: % Enzyme Activity (relative to DMSO controls)
T5 construct: purchased Reaction Biology Corporation

[6] = biological target: T6, MEKK2 (Homo sapiens, UniProt Q9Y2U5); test: HotSpot kinase assay; format: biochemical; conditions: read-out: % Enzyme Activity (relative to DMSO controls)
T6 construct: purchased Reaction Biology Corporation

[7] = biological target: T7, CDK19/cyclin C (Homo sapiens, UniProt Q9BWU1); test: HotSpot kinase assay; format: biochemical; conditions: read-out: % Enzyme Activity (relative to DMSO controls)
T7 construct: purchased Reaction Biology Corporation

[8] = biological target: T8, CDK1/cyclin A (Homo sapiens, UniProt P06493); test: HotSpot kinase assay; format: biochemical; conditions: read-out: % Enzyme Activity (relative to DMSO controls)
T8 construct: purchased Reaction Biology Corporation

[9] = biological target: T9, JNK2 (Homo sapiens, UniProt P45984); test: HotSpot kinase assay; format: biochemical; conditions: read-out: % Enzyme Activity (relative to DMSO controls)
T9 construct: purchased Reaction Biology Corporation

[10] = biological target: T10, LATS1 (Homo sapiens, UniProt O95835); test: HotSpot kinase assay; format: biochemical; conditions: read-out: % Enzyme Activity (relative to DMSO controls)
T10 construct: purchased Reaction Biology Corporation

[11] = biological target: T11, GSK3b (Homo sapiens, UniProt P49841); test: biochemical; conditions: read-out: % Enzyme Activity (relative to DMSO controls)
T11 construct: purchased Reaction Biology Corporation

[12] = biological target: T12, ERK5/MAPK7 (Homo sapiens, UniProt Q13164); test: HotSpot kinase assay; format: biochemical; conditions: read-out: % Enzyme Activity (relative to DMSO controls)
T12 construct: purchased Reaction Biology Corporation

[13] = biological target: T13, FGFR1 (Homo sapiens, UniProt P11362); test: HotSpot kinase assay; format: biochemical; conditions: read-out: % Enzyme Activity (relative to DMSO controls)
T13 construct: purchased Reaction Biology Corporation

[14] = biological target: T14, SNARK/NUAK2 (Homo sapiens, UniProt Q9H093); test: HotSpot kinase assay; format: biochemical; conditions: read-out: % Enzyme Activity (relative to DMSO controls)
T14 construct: purchased Reaction Biology Corporation

[15] = biological target: T15, LYN B (Homo sapiens, UniProt P07948); test: HotSpot kinase assay; format: biochemical; conditions: read-out: % Enzyme Activity (relative to DMSO controls)
T15 construct: purchased Reaction Biology Corporation

[16] = biological target: T16, JNK1 (Homo sapiens, UniProt P45983); test: HotSpot kinase assay; format: biochemical; conditions: read-out: % Enzyme Activity (relative to DMSO controls)
T16 construct: purchased Reaction Biology Corporation

[17] = biological target: T17, RIPK2 (Homo sapiens, UniProt O43353); test: HotSpot kinase assay; format: biochemical; conditions: read-out: % Enzyme Activity (relative to DMSO controls)
T17 construct: purchased Reaction Biology Corporation

[18] = test system: Akt (pAkt T308) in HaCat cells; test: Akt phosphorylation in response to insulin (confocal); format: cell-based, human; conditions: insulin 10 μM, CIMSS 10 or 100 µM
[19] = biological target: T18, TBK1 (Homo sapiens, UniProt Q9UHD2); test: HotSpot kinase assay; format: biochemical; conditions: read-out: % Enzyme Activity (relative to DMSO controls)
T18 construct: purchased Reaction Biology Corporation

[20] = biological target: T19, ALK4/ACVR1B (Homo sapiens, UniProt P36896); test: HotSpot kinase assay; format: biochemical; conditions: read-out: % Enzyme Activity (relative to DMSO controls)
T19 construct: purchased Reaction Biology Corporation

[21] = biological target: T20, CK1g3 (Homo sapiens, UniProt Q9Y6M4); test: HotSpot kinase assay; format: biochemical; conditions: read-out: % Enzyme Activity (relative to DMSO controls)
T20 construct: purchased Reaction Biology Corporation

[22] = biological target: T21, ABL2/ARG (Homo sapiens, UniProt P42684); test: HotSpot kinase assay; format: biochemical; conditions: read-out: % Enzyme Activity (relative to DMSO controls)
T21 construct: purchased Reaction Biology Corporation

[23] = biological target: T22, CDK18/cyclin Y (PCTK3) (Homo sapiens, UniProt Q07002); test: HotSpot kinase assay; format: biochemical; conditions: read-out: % Enzyme Activity (relative to DMSO controls)
T22 construct: purchased Reaction Biology Corporation

[24] = biological target: T23, SRMS (Homo sapiens, UniProt Q9H3Y6); test: HotSpot kinase assay; format: biochemical; conditions: read-out: % Enzyme Activity (relative to DMSO controls)
T23 construct: purchased Reaction Biology Corporation

[25] = biological target: T24, DRAK1/STK17A (Homo sapiens, UniProt Q9UEE5); test: HotSpot kinase assay; format: biochemical; conditions: read-out: % Enzyme Activity (relative to DMSO controls)
T24 construct: purchased Reaction Biology Corporation

[26] = biological target: T25, EPHB4 (Homo sapiens, UniProt P54760); test: HotSpot kinase assay; format: biochemical; conditions: read-out: % Enzyme Activity (relative to DMSO controls)
T25 construct: purchased Reaction Biology Corporation

[27] = biological target: T26, EPHA7 (Homo sapiens, UniProt Q15375); test: HotSpot kinase assay; format: biochemical; conditions: read-out: % Enzyme Activity (relative to DMSO controls)
T26 construct: purchased Reaction Biology Corporation

[28] = biological target: T27, ALK2/ACVR1 (Homo sapiens, UniProt Q04771); test: HotSpot kinase assay; format: biochemical; conditions: read-out: % Enzyme Activity (relative to DMSO controls)
T27 construct: purchased Reaction Biology Corporation

[29] = test system: SARS-CoV-2 (WA1/2020); test: SARS-CoV-2 infection of Huh-7.5 cells (nucleocapsid staining); conditions: 24 and 72 h
[30] = Parallel artificial membrane permeability assay (PAMPA); format: in vitro ADME
[31] = biological target: T28, MLCK/MYLK (Homo sapiens, UniProt Q15746); test: HotSpot kinase assay; format: biochemical; conditions: read-out: % Enzyme Activity (relative to DMSO controls)
T28 construct: purchased Reaction Biology Corporation

[32] = biological target: T29, ABL1 (Homo sapiens, UniProt P00519); test: biochemical
T29 construct: purchased Reaction Biology Corporation

[33] = biological target: T30, SGK3/SGKL (Homo sapiens, UniProt Q96BR1); test: HotSpot kinase assay; format: biochemical; conditions: read-out: % Enzyme Activity (relative to DMSO controls)
T30 construct: purchased Reaction Biology Corporation

[34] = test system: HSV-1 K26GFP; test: capsid entry, confocal imaging, HaCat cells; format: cell-based; conditions: 1 h post-temperature shift; CIMSS 10 μM, antibody 2 μg/ml
Method: To quantify viral entry, cells were synchronously infected by allowing virus to bind to cells at 4°C for 4 h, washed, and then transferred to 37 °C. CIMSS or control DMSO was added at the time of temperature shift. At indicated times post-temperature shift, the cells were treated with a low pH buffer to inactivate virus that had not penetrated, washed, overlaid with medium containing methyl cellulose and viral plaques were counted at 48 h. Entry was also assessed by immunoblotting nuclear extracts for VP16. […] Nuclear extracts were prepared after 1 h and analyzed by western blot with antibodies targeting VP16, histone H1 and golgin-97[5]. The non-nuclear fraction was also probed for golgin-97 as a positive control. […] After 1 or 4 h of incubation, the cells were fixed. Plasma membranes were stained using Image -IT^TM LIVE Plasma Membrane kit and nuclei were stained with DAPI (Thermo Fisher Scientific, Cat 134406). The percentage of GFP + nuclei was determined by counting ~200 cells over 3–4 fields. Images were obtained with Leica SP8 microscope (objective 63 × 1.4); xz images were captured with optical slice 0.6 µm, 25–30 slices per image.

[35] = biological target: T31, STK38/NDR1 (Homo sapiens, UniProt Q15208); test: HotSpot kinase assay; format: biochemical; conditions: read-out: % Enzyme Activity (relative to DMSO controls)
T31 construct: purchased Reaction Biology Corporation

[36] = Supplementary Table 1, read-out: IC50 (Molar concentration)
[37] = read-out: % Enzyme Activity (relative to DMSO controls), 10µM

T29 sequence (P00519 whole entry): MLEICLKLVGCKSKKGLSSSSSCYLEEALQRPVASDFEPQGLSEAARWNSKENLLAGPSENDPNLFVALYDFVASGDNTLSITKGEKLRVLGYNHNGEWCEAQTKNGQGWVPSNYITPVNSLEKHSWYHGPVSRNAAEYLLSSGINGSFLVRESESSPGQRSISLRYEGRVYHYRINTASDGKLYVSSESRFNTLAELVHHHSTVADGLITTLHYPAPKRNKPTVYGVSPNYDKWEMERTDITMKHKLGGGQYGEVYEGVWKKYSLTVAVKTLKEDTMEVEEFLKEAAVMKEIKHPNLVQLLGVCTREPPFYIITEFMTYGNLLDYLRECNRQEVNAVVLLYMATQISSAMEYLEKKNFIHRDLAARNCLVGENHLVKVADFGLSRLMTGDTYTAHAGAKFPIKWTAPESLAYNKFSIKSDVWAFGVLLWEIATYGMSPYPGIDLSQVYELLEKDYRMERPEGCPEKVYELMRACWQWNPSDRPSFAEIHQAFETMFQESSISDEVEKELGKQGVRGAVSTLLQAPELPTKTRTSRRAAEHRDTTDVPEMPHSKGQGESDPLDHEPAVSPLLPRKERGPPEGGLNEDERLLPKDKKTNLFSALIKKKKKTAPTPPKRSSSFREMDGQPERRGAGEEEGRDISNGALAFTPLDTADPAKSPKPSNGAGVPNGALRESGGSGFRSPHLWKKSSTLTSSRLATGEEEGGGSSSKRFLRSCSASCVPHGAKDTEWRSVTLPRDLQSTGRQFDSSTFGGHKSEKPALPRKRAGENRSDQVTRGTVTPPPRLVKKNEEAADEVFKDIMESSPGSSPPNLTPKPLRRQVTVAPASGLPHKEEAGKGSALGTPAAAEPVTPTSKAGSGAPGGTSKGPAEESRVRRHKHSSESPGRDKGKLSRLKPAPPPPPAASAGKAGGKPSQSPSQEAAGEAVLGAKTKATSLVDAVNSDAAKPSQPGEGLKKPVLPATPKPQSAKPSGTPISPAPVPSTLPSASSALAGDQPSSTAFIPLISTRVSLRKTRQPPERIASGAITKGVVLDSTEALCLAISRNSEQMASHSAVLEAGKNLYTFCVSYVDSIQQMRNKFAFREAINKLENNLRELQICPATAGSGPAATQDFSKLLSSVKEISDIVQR
T2 sequence (P00533 25-1210): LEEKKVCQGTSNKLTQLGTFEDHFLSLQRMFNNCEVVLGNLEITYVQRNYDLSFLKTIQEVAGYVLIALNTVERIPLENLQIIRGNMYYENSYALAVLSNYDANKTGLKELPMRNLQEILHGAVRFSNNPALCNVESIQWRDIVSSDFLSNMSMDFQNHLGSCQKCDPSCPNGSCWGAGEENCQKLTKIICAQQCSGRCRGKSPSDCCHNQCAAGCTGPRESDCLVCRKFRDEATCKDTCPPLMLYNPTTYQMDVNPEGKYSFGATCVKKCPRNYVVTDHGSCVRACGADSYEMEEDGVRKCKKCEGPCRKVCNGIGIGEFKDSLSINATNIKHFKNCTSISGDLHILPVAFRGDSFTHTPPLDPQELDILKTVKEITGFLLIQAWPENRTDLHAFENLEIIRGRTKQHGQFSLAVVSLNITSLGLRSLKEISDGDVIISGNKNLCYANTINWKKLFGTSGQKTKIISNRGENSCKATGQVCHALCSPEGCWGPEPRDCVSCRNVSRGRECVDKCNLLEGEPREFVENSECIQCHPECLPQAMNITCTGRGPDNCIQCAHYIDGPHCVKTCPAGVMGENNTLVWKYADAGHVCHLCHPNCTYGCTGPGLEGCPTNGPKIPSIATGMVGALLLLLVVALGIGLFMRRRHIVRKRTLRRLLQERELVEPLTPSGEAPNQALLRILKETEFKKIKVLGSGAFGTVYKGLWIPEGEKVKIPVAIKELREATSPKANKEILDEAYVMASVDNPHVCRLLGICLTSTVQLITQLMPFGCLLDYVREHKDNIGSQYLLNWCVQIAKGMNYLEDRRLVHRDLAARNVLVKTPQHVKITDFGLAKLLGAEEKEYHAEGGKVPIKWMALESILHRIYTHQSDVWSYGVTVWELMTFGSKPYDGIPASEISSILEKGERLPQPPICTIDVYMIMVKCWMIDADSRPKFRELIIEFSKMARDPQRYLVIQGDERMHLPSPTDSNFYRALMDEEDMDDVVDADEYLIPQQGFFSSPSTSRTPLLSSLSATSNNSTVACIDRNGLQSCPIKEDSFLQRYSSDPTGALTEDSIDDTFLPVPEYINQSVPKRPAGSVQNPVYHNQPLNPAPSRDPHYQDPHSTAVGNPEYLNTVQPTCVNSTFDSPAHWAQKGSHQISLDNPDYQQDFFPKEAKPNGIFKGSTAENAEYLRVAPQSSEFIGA
T7 sequence (Q9BWU1 whole entry): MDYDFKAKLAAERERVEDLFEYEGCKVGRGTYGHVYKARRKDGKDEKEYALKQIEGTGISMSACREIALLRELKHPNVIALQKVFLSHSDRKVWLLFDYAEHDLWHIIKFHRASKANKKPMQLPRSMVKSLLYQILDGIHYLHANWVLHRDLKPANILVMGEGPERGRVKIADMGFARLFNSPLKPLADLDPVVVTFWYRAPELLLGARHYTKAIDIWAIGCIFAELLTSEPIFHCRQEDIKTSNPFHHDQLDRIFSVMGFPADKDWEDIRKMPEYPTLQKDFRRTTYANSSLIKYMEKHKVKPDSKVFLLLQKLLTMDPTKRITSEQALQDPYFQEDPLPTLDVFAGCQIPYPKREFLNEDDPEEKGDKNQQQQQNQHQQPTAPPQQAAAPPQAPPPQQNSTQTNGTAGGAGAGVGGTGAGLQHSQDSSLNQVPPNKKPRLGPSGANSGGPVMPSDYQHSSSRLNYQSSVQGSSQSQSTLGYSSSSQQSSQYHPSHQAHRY
T7 sequence (P24863 whole entry partner): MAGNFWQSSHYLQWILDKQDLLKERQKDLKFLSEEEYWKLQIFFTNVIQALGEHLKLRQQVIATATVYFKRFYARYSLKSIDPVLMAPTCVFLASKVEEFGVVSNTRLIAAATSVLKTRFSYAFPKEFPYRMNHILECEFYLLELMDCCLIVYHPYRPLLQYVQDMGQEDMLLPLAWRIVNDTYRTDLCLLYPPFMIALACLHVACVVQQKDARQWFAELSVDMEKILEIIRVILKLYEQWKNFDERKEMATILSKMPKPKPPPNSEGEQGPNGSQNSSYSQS
T12 sequence (Q13164 whole entry): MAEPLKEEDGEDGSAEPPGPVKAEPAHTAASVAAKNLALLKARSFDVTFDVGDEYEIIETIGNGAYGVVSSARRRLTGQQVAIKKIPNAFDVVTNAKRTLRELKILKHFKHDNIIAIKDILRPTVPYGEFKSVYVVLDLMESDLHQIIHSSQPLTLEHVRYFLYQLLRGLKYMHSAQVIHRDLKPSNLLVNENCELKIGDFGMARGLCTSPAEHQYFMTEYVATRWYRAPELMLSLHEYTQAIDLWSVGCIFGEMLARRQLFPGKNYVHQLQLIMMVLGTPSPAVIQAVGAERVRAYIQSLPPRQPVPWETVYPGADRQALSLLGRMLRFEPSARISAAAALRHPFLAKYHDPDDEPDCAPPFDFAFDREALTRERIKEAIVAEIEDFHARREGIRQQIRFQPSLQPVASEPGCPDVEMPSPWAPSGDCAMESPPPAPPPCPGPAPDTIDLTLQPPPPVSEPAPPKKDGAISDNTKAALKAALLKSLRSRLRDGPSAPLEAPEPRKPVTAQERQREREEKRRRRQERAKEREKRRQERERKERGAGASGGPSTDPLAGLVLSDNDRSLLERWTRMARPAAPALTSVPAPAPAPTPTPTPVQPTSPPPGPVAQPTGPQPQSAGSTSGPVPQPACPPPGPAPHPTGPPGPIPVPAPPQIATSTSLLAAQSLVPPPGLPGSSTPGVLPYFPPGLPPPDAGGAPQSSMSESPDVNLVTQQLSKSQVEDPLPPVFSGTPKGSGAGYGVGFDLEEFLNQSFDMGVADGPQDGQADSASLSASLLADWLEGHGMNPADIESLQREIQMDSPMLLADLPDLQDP
T23 sequence (Q9H3Y6 whole entry): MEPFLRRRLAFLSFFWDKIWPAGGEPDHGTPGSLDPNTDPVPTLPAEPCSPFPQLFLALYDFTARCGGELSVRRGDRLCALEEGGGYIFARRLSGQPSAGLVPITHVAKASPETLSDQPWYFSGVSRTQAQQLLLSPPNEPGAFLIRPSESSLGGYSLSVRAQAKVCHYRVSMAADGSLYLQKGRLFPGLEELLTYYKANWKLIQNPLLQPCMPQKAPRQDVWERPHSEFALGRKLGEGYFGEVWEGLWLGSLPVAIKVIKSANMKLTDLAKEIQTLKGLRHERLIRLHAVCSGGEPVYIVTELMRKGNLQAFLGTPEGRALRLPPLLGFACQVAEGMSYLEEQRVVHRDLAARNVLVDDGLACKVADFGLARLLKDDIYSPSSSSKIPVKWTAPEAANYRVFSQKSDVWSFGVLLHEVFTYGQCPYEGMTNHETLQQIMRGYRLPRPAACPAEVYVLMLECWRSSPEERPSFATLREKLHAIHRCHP
T30 sequence (Q96BR1 whole entry): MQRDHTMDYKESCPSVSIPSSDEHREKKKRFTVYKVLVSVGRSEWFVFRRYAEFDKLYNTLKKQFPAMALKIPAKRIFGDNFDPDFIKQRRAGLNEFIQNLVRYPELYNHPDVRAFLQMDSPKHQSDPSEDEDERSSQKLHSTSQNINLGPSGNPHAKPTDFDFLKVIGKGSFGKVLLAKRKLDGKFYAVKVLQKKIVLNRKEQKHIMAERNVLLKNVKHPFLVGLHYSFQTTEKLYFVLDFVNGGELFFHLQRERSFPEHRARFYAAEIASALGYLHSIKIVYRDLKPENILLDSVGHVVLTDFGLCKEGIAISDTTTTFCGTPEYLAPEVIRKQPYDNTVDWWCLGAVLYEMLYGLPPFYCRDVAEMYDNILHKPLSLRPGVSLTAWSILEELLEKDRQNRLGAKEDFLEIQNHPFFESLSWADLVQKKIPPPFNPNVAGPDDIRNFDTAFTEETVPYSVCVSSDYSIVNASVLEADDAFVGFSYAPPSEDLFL

CO[C@@H]1[C@H](N(C)C(=O)CCC(=O)NCc2cn(CCCS(=O)(=O)O)nn2)C[C@H]2O[C@]1(C)n1c3ccccc3c3c4c(c5c6ccccc6n2c5c31)C(=O)NC4 [CIMSS]
remaining activity at 10 µM [1]: 81.7% | pIC50 [2, 36]: 5.79 | remaining activity at 10 µM [2, 37]: 17.4% | remaining activity at 10 µM [3]: 14.2% | remaining activity at 10 µM [4]: 2.19% | remaining activity at 10 µM [5]: 22.3% | remaining activity at 10 µM [6]: 8.32% | remaining activity at 10 µM [7]: 37.9% | remaining activity at 10 µM [8]: 21.3% | remaining activity at 10 µM [9]: 42.3% | remaining activity at 10 µM [10]: 9.89% | remaining activity at 10 µM [11]: 2.85% | remaining activity at 10 µM [12]: 84.5% | remaining activity at 10 µM [13]: 6.31% | remaining activity at 10 µM [14]: 2.16% | remaining activity at 10 µM [15]: 2.95% | remaining activity at 10 µM [16]: 24.8% | remaining activity at 10 µM [17]: 41.7% | block of Akt phosphorylation in response to insulin [18]: did not block | remaining activity at 10 µM [19]: 2.01% | remaining activity at 10 µM [20]: 58.3% | remaining activity at 10 µM [21]: 97.2% | remaining activity at 10 µM [22]: 4.07% | remaining activity at 10 µM [23]: 41.3% | remaining activity at 10 µM [24]: 91% | remaining activity at 10 µM [25]: 18.2% | remaining activity at 10 µM [26]: 19.4% | remaining activity at 10 µM [27]: 6.91% | remaining activity at 10 µM [28]: 72.7% | authentic SARS-CoV-2 (WA1/2020) infection [29]: inhibitory activity | Recover % ([30]; 100 µM): 83% | Papp at 5 h, 100 μM ([30]; PAMPA, PBS pH 7.4, 5 h): 0.005 ×10⁻⁶ cm/s | remaining activity at 10 µM [31]: 15.5% | pIC50 [32, 36]: 6.84 | remaining activity at 10 µM [32, 37]: 5.18% | remaining activity at 10 µM [33]: 59.6% | percentage of GFP + cells [34]: significantly decreased | remaining activity at 10 µM [35]: 8.29%
